SMILES strings stand for the structures.

A short description of the data set: Human HepG2 cell viability assay in 384 well format. Format: toxicity, cell-based. To be noted: HepG2 cells, read-out: Inhibition. Also noted: dose 125 nL, time 70.5 hour; cytotoxicity at 70.5 h: concentration not given beside the values.
In the case of `O=C(NC[C@H]1OC[C@@H](NC2CCCCC2)[C@@H]1O)Nc1ccccc1`, the cytotoxicity at 70.5 h turned out to be 15.8%.

Take `O=C(C1CC=CC1)N1Cc2nccn2CC(CN2CCCC2)C1` (centres undefined): the cytotoxicity at 70.5 h is -4.01%. Next, `Cc1noc(C)c1-c1cccc(C2CN(S(=O)(=O)N(C)C)CCO2)n1` (centres undefined): -3.96%. The value for `COc1ncccc1NC(=O)N(C1CC1)C(C)C(C)C` (centres undefined) was -13.6%; that for `CN1Cc2ccccc2CC2(CCN(c3ncccn3)CC2)C1=O` was -14.8%. Consider `Cn1cc(N2CCC(NC(=O)c3c(F)cccc3F)C2=O)cn1` (centres undefined), for which the cytotoxicity at 70.5 h is -2.48%. The value for `CC(=O)N(Cc1noc(C)n1)C1CCN(Cc2ccc(C#N)cc2)C1` (centres undefined) was 30.3%. As to `Cc1cc(CNc2ccc3nc(C4CC4)sc3c2)no1`, the cytotoxicity at 70.5 h is -9.59%. Next, `O=C(Cc1cccc(O)c1)N1CCCC(OCc2cccnc2)C1` (centres undefined): -7.55%.

In the case of `CC1(C)CN(C(CNS(C)(=O)=O)c2ccc(Cl)cc2)CCO1` (centres undefined), the cytotoxicity at 70.5 h was -5.58%. Turning to `CC(C)CCN1CCN(C(=O)c2c[nH]c(=O)[nH]2)CC1`, the cytotoxicity at 70.5 h is -8.02%. Next, `Fc1cccc(-c2n[nH]cc2-c2nc(CN3CCOCC3)no2)c1`: 15.5%; `COc1cnc(N2CCN(C)CC2)nc1-c1ccnn1C`: -6.6%. The value for `CN[C@@H](CO)C(=O)NCc1cc2n(n1)CCCN(C1CCCCC1)C2` was -6.96%; that for `CCCN1C[C@H]2CC[C@@H]1CN(c1nnc(C(C)C)s1)C2` was 27.1%; that for `Cc1noc(C)c1CNc1cccc(C(=O)N(C)c2ccccc2)c1` was 14.2%. Next, `c1cncc(Cc2nnc3n2CCN(CC2CCOC2)CC3)c1` (centres undefined): -10.7%; `c1cnc(N2CCC3(CCN(Cc4cccnc4)CC3)CC2)nc1`: -8.42%. On to `CCOCC(O)CN1CCN(C(=O)c2cccc(F)c2)CC1` (centres undefined), for which the cytotoxicity at 70.5 h was -7.93%. The value for `Cc1ccc(C)c(CS(=O)(=O)CC(=O)N(C)Cc2cccc(F)c2)c1` was 21.1%. As to `CCCn1ncc(C2CC(=O)NCc3nc4cc(C)ccn4c32)c1C` (centres undefined), the cytotoxicity at 70.5 h was found to be 2.43%.

Regarding `CC(C)=CCS(=O)(=O)Cc1noc(CC(C)C)n1`, the cytotoxicity at 70.5 h is -1.31%. With `Cc1cccc(CN2C(=O)C[C@H]3[C@@H]2CCN3Cc2ccco2)n1`, the cytotoxicity at 70.5 h was -11.7%. Regarding `N#CCSCCCN1CCN(C(=O)C2CCCC2)CC1`, the cytotoxicity at 70.5 h was -5.88%. Next, `CC(CO)NC(=O)Nc1ccc(COC2CCCC2)cc1` (centres undefined): -2.03%. `Cc1cc(C)c(CNC(=O)NC2CCOCC2)c(=O)[nH]1`: the cytotoxicity at 70.5 h is -12.6%. Turning to `CN(C)[C@@H]1CN(C(=O)c2ccc3ccccc3n2)C[C@H]1O`, the cytotoxicity at 70.5 h is -7.72%. The value for `CCc1c(C(=O)N2CCN(CC(N)=O)CC2)cnn1C(C)(C)C` was -2.02%; that for `Cc1cc(NC(=O)CCN2CCn3c(C)nnc3C2)no1` was -8.82%.

As to `CCN(C)S(=O)(=O)NCC1CCN(Cc2ccccc2C)CC1`, the cytotoxicity at 70.5 h is -9.65%. On to `O=C(Cn1ccc(C(=O)O)n1)Nc1c(Cl)cccc1Cl`, for which the cytotoxicity at 70.5 h is -3.45%. Take `COCCN1CCN(C)C2(CCN(C(=O)c3ccnnc3)CC2)C1=O`: the cytotoxicity at 70.5 h is -0.603%. `Cc1cnn(C2CCCN(C(=O)c3cn4cccnc4n3)C2)c1` (centres undefined): the cytotoxicity at 70.5 h is -3.94%. Next, `CC(C)OCCCNC(=O)c1cccnc1N1CCOCC1`: 39.8%; `Cc1ccoc1C(=O)N1C[C@H](OCC2CC2)[C@H]2OCCC[C@H]21`: -0.347%.

For the compound `CC(C)n1ccc(=O)nc1SC1CCN(c2ccccc2F)C1=O` (centres undefined), the cytotoxicity at 70.5 h was -1.73%. Consider `CC(C)=CCN(C)C1CCCN(Cc2noc(C)n2)C1` (centres undefined), for which the cytotoxicity at 70.5 h was 21.1%. For the compound `COc1ccccc1CCNC(=O)N1CCCC(c2nncn2C)C1` (centres undefined), the cytotoxicity at 70.5 h is -1.17%. The value for `COc1ccccc1-c1nccnc1C1CCN(C(C)=O)CC1` was -6.14%; that for `NC(=O)CN1CCCC(CCCc2ccccn2)(C(N)=O)C1` (centres undefined) was -3%. Next, `CCC(C)(C)NC(=O)CN1C=Nc2ccccc2S1(=O)=O`: -5.89%. With `CC(C)c1nnc(NC(=O)NC2CCN(Cc3ccccc3)C2)s1` (centres undefined), the cytotoxicity at 70.5 h was -2.21%. Turning to `Nc1cc2c(nn1)CCN(C(=O)c1cccc3c1OCCO3)C2`, the cytotoxicity at 70.5 h is -14.7%. As for `COc1ccc(C(=O)N2C[C@@H](O)[C@H](NCc3cnc(C)cn3)C2)cc1`, the cytotoxicity at 70.5 h came out at 22.1%. Next, `COc1ccc(CN(C)CC(=O)Nc2ccc3[nH]c(=O)[nH]c3c2)cc1F`: -8.14%; `Cn1ccnc1CN1CC[C@@H](NS(C)(=O)=O)[C@@H]1Cc1ccccc1`: -10.6%. Next, `COc1cccc(CC(=O)NC(C)c2nc3cccnc3n2C(C)C)c1` (centres undefined): -2.69%; `Cc1nnsc1CN1C[C@H]2CC[C@@H]1CN(Cc1ccccn1)C2`: -6.51%. The value for `CCN(CC)C(CNCc1ccc(O)cc1)c1ccco1` (centres undefined) was 27%. For the compound `CCCc1noc2ncc(C(=O)N3CCCC3c3cnn(C)c3)cc12` (centres undefined), the cytotoxicity at 70.5 h was -6.19%. As to `O=C1CC[C@H]2[C@H](CCN2C(=O)C2CCOC2)N1Cc1ccncc1` (some centres undefined), the cytotoxicity at 70.5 h is -20.6%. Take `CCCC(=O)N1CCCC(C(=O)c2cnn(-c3ccc(F)cc3)c2N)C1` (centres undefined): the cytotoxicity at 70.5 h was -4.03%. `Fc1cc(CNCCn2cccn2)ccc1-n1cncn1`: the cytotoxicity at 70.5 h amounted to 1.79%. As for `Cc1ccnc(NC(=O)c2cncc(C3CCNCC3)n2)c1`, the cytotoxicity at 70.5 h is -10.4%. Take `C[C@@H]1CN(C(=O)[C@H]2CCCO2)C[C@]12CCN(c1ccsc1)C2=O`: the cytotoxicity at 70.5 h was -11.7%. The value for `Cc1nccc(N2CCC(=O)N(CC3CC3)C(C(C)C)C2)n1` (centres undefined) was -1.5%.

`O=C(NCc1ccc(N2CC=CC2)cc1)Nc1nnc(C2CC2)s1`: the cytotoxicity at 70.5 h was found to be 22.1%. Take `Cc1ccc(N2CCCC(NCCS(C)(=O)=O)C2)nn1` (centres undefined): the cytotoxicity at 70.5 h was -1.77%.

Take `CN(C)c1cc(C(=O)N2CCCN(c3cccnn3)CC2)ccn1`: the cytotoxicity at 70.5 h was -9.96%.

For `O=C1CCCN1CC1CN(C(=O)C2CCOCC2)Cc2nccn2C1` (centres undefined), the cytotoxicity at 70.5 h was -1.66%. Next, `COc1ccc(C[C@H]2CNCC[C@H]2OC)cc1`: -6.44%.

As for `COc1ccc(OC)c(NC(=O)NCC(O)c2ccc(F)c(F)c2)c1` (centres undefined), the cytotoxicity at 70.5 h was 9.62%. Next, `Cc1cc(C(=O)N2CCCCC2c2nc3cc(F)ccc3[nH]2)nn1C` (centres undefined): -6.6%; `CCN(CC1=CCN(C)CC1)C(=O)CCOC`: -6.72%; `CCOc1cccc(C(=O)N2CCC3(CC2)[C@H](O)C[C@@H]3OC)c1`: 0.338%. Next, `CN(C)C(=O)Cc1nc(CN2CCn3c(nnc3C3CC3)C2)cs1`: -18.5%. Next, `CCC(CNC(=O)C1CC1)(OC)c1ccccc1` (centres undefined): 8.11%.

`Cn1cc(CN2C[C@@H]3CN(Cc4ccoc4)CCO[C@@H]3C2)cn1`: the cytotoxicity at 70.5 h is -3.44%. For the compound `CC(C)(O)C1CCCN(C(=O)Nc2nc(-c3ccccc3)ns2)C1` (centres undefined), the cytotoxicity at 70.5 h is -3.5%.

Turning to `COc1cccc(C(O)CN2CCN(c3cccc(C)c3)CC2)c1` (centres undefined), the cytotoxicity at 70.5 h was 0.851%. The value for `CNC(=O)c1cnn2c(C3CCCN3)ccnc12` (centres undefined) was 6.37%.

Consider `CC(=O)N[C@H]1CCO[C@@H](c2cccc(NC(=O)Cc3ccccc3)c2)C1`, for which the cytotoxicity at 70.5 h stood at 10.3%.

On to `O=C(NC[C@H]1OC[C@@H](NC2CCOCC2)[C@@H]1O)C1CCCC1`, for which the cytotoxicity at 70.5 h was -6.06%. Next, `Cc1nc(-n2nc(C3CC3)cc2NC(=O)C(C)C)[nH]c(=O)c1C`: 40.2%.

Take `c1cc(C2CCCN2Cc2nnnn2C2CC2)cs1` (centres undefined): the cytotoxicity at 70.5 h is -8.27%. Next, `COCCN1CC(c2nc(CSC)no2)CCC1=O` (centres undefined): 2.97%; `CCn1ccnc1CN1CCCN(C(=O)Cc2ccc(C)nc2)CC1`: -14.5%. Next, `N#Cc1cccc(N2CC3(CCN(C(=O)NC4CC4)C3)CC2=O)c1` (centres undefined): -4.14%; `CCN1CCOCC2(C1)CN(C(=O)c1c(C)noc1C)CCO2` (centres undefined): -3.94%; `CCN1CCCC1CNC(=O)c1cc(COc2ccccc2F)[nH]n1` (centres undefined): -4.57%. The value for `COCc1nc(C(=O)N2CCCC(n3nc(C)nc3C)C2)cs1` (centres undefined) was 28.1%; that for `COc1cccc(N2CC3(CCN(c4cnccn4)C3)CC2=O)c1` (centres undefined) was 13.8%.

Regarding `COCCO[C@H]1CCN(Cc2cccnc2)[C@H]1Cc1cccnc1`, the cytotoxicity at 70.5 h came out at 17.5%. Take `COc1ccc(C(CNC(=O)c2c(C)noc2C)N(C)C)cc1` (centres undefined): the cytotoxicity at 70.5 h amounted to 21.1%. Next, `O=C(CCc1ccccc1Br)NS(=O)(=O)c1ccc2c(c1)OCCO2`: -1.54%; `O=C(NCCOc1ccc(Cl)cn1)Nc1cccnc1`: -0.774%; `Cc1ccc(NC2CCCN(Cc3ccc(Cl)cc3)C2)nn1` (centres undefined): 25.4%. Turning to `Nc1nc2nc(C3CCCN(C(=O)c4cncs4)C3)ccc2s1` (centres undefined), the cytotoxicity at 70.5 h amounted to 0.556%. As to `CC(C)c1nnsc1CN1CCc2[nH]nc(-c3ccc(Cl)cc3)c2C1`, the cytotoxicity at 70.5 h turned out to be 9.53%.

On to `c1cnc(N2CCC3(CCN(CC4CCOCC4)CC3)C2)nc1`, for which the cytotoxicity at 70.5 h came to 0.659%. For the compound `Cc1cc(CC(=O)NC(C)c2ccc(OCC3CC3)c(F)c2)n[nH]1` (centres undefined), the cytotoxicity at 70.5 h is -7.64%. The value for `COCC(=O)NCCCn1nc2ccccn2c1=O` was -15.5%; that for `CCOC(=O)CN1C(=O)CN(S(C)(=O)=O)CCC(OC)c2ccccc21` (centres undefined) was -8.31%.

In the case of `COc1cccc(Cc2nnc(SC3CCOC3=O)o2)c1` (centres undefined), the cytotoxicity at 70.5 h is -5.61%. As for `Cc1nc(C(=O)N2CCCC2c2noc(C3CC3)n2)c[nH]1` (centres undefined), the cytotoxicity at 70.5 h is -0.671%. The value for `CC(C)c1nc(C2CCCN2Cc2nccn2CC(F)(F)F)no1` (centres undefined) was -8.8%. `Cc1cc(-c2cnc(N3CCNC(=O)C3)nc2-c2ccncc2)on1`: the cytotoxicity at 70.5 h was found to be 7.7%. The value for `Cc1n[nH]c(C2CN(C(=O)c3cc(Cl)c[nH]3)CCO2)n1` (centres undefined) was -3.9%; that for `O=C(NCCc1ccc(Cl)s1)NCc1nnc2n1CCCC2` was -12.9%.

For the origin of these results see ChEMBL document CHEMBL3507680, “University of Dundee, Gates Library screen for HepG2 cell viability”.
